The record followed here is patent EP0146113A2, “Active agent and therapeutical composition for the treatment of deincephalon failures of nervous deseases and skin diseases” (Aderhold, Dieter, priority 1983, dated 1985).

Series [1] concerns Patienten. In words: Subcutaneous injection of the chemically pure substances in a series of patients. Format: in vivo. Conditions: subkutan. From the text: Es wurden ferner die chemisch reinen Substanzen α -MSH und ß -MSH subkutan bei einer Reihe von Patienten gespritzt.
The nature of series [2]: Therapeutic use of melanotropin peptides, overall results (no method given). Format: in vivo. The conditions noted are these: general statement, treatment of diencephalon/hypophysis dysfunction, Multiple Sklerose.
Series [3] is described as follows: Comparative trials with peptides of six, four or two amino acids of the chain Met-Glu-His-Phe-Arg-Trp-Gly. Type of series: in vivo. As to the method: Die Wirkung von etwa 0,3 mg <-MSH entsprach etwa der Wirkung von 0,1 mg dieses Tetrapeptides.
In series [4] the test system is Patienten. Briefly: Long-term trial, subcutaneous application over 2 - 15 months in a series of patients (MS therapy). Type of series: in vivo. The text has this:
Das Tetrapeptid His-Phe-Arg-Trp wurde in einem Langzeitversuch über 2 - 15 Monate hinweg einer Reihe von Patienten subkutan appliziert. Dabei wurden folgende Ergebnisse erhalten: • Zwei Drittel der Patienten hatten ein subjektives - aber durchaus auch objektivierbares - Gefühl der Frische, höheren Lebensmut und größerer Leistungsfähigkeit.
Verschiedene Anhaltspunkte machten deutlich, daß es sich nicht um einen Cortisoneffekt handelte.
Wenn ein bis zwei Tage lang nicht oder mit Placebos behandelt wurde, trat bei allen Patienten eine objektive Verschlechterung in Richtung der bisherigen Beschwerden auf; auch subjektiv waren alle Patienten eindrucksvoll in der Lage, anhand der Wirkung Spritzen mit Substanz von Placebos zu unterscheiden. Die richtige Dosierung des erfindungsgemäßen Mittels ist kritisch. Uberdosierungen machten sich in Form von erhöhtem Blutdruck, Hitzegefühl, Kurzatmigkeit und bei kreislauflabilen Patienten in deren typischen Beschwerden bemerkbar. Die normale Tagesdosis des Tentrapeptides zur MS-Therapie wurde auf etwa […] festgesetzt, in Einzelfällen - solange es ohne die obengenannten Uberdosierungsphänomene vertragen wird - höher bzw. im Sinne einer Erhaltungsdosis oder bei kreislauflabilen Patienten auch niedriger.

Series [5] in a line: Storage stability (loss of activity on storage). Type of series: physicochemical. As to the method:
(§1) Die Erfahrungen mit α-, β- und 4 -MSH bzw. dem erwähnten Tetrapeptid zeigen, daß diese Substanzen ausserordentlich empfindlich und labil sind. […] Bei der Verbindung des Tetrapeptides mit einer Depotsubstanz sollte eine Wirkungsdauer von 12-15 Stunden angestrebt werden.
(§2) Während die Halbwertzeit des reinen Tetrapeptides ca. 1 Woche beträgt, trat bei dem hergestellten Depotpräparat ein geringerer Wirkungsverlust als 10% pro Woche auf. Im Körper hält der Depoteffekt zwischen 6 - 12h an. Als Tagesdosis von dem Depotpräparat empfiehlt sich eine Menge von etwa 1 ml, was etwa 200 Mikrogramm entspricht.
Für das Depotpräparat ist keine gekühlte Lagerung mehr erforderlich.

Series [6] in a line: Duration of effect in the body. Type of series: in vivo. Conditions: without depot substance. The procedure: as §1, §2
The next series relates to menschlichen Auges. Briefly: Eye drops, effect on vision. Format: in vivo, Patienten. From the text:
Diese Fähigkeit zeigte insbesondere das Tetrapeptid His-Phe-Arg-Trp.
Es wurden täglich ca. 2pg pro Auge des Tetrapeptides in physiologischer Kochsalzlösung in der Form von Augentropfen verabreicht. Dabei wurden die vorstehend erwähnten Erfolge erzielt.

Setting [7] is: Augentropfen in physiologischer Kochsalzlösung, daily.

With β -Melanotropin [ß -MSH], in the series on Patienten [1] (time to onset, at first application possibly only after one to two days), the “kurzzeitiger Besserungseffekt (Kräftigung, Frischegefühl)” value is “innerhalb der ersten Stunde”.

For the compound `N=C(N)NCCC[C@H](NC(=O)[C@H](Cc1ccccc1)NC(=O)[C@@H](N)Cc1cnc[nH]1)C(=O)N[C@@H](Cc1c[nH]c2ccccc12)C(=O)O` [Tetrapeptid His-Phe-Arg-Trp, His-Phe-Arg-Trp], the Ergebnisse entry in series [2] was “besten Ergebnisse”. Besides, the “Wirkung (comparison between the substances)” value with Patienten [1] (patients) is reported as “im wesentlichen die gleiche Wirkung wie α -MSH und β-MSH”. Also, the “Equally effective amount (Wirkung entsprach)” value in series [3] (amounts of the two substances with about the same effect) is recorded as ~0,1 mg. Moreover, the “Positivwirkung und Negativwirkung” value in series [3] (comparison among peptides of the seven-residue chain) is “stärksten Positivwirkung und der schwächsten Negativwirkung”. In the series on Patienten [4] (in vivo), the “Tolerability together with Cortison” value is on record as “gut nebeneinander vertragen”. For the same compound, in the series with Patienten [4] (subkutan, 2 - 15 Monate), the “Krankheitsbild (course)” value was “keine Verschlechterungen des Krankheitsbildes auf, sondern einige nachweisbare Verbesserungen”; the “Reports of individual patients” value is “Normalisierung des (bisher zu niedrigen) Blutdrucks, bessere Durchblutung und Beweglichkeit der Extremitäten, Wiederherstellung des Tag-Nacht-Rhythmus (keine Schlafstörungen mehr), bessere Sehfähigkeit, Normalisierung des Zyklus, Minderung von Gleichgewichtsstörungen”; the “Share of patients with Gefühl der Frische, höheren Lebensmut und größerer Leistungsfähigkeit” value is recorded as “Zwei Drittel”; the Spastik entry is listed as “starkes Nachlasen der Spastik”. Further, the “Absetzen von Cortison” value in the series with Patienten [4] (withdrawal of Cortison under the tetrapeptide) is “wesentlich erleichtert und ohne Rückschläge oder Komplikationen beschleunigt”. The Lagerfähigkeit entry in series [5] (als Reinsubstanz tiefgekühlt) is recorded as “lagerfähig”. Also, the “Loss of Wirksamkeit” value in series [5] (in destilliertem Wasser gelöst, bei Kühlschranktemperatur aufbewahrt) was “etwa die Hälfte”. Besides, the Halbwertzeit entry in series [5] (pure tetrapeptide, storage) was “ca. 1 Woche”. In series [6], the “Loss of effect im Körper” value is on record as “innerhalb kurzer Zeit”. In the series on menschlichen Auges (setting [7]), the “Fähigkeit des Patienten in bezug auf die Zusammensetzung von bewegten Bildern” value is on record as “wesentlich verbessert” and the “Wahrnehmung von Lichtreizen” value is given as “stabilisiert”. Moreover, the “Sehfähigkeit des menschlichen Auges” value in the series with menschlichen Auges (in vivo) is “Verbesserung der Sehfähigkeit”.
